# Measurements: patent US20040063736A1, “Combination of active ingredients containing alfuzosine and apomorphine” (priority 2001, published 2004)
# Tested on: hypertensive rats (SHR)
# Experiment: Erectile responses (number of erections, intracavernous pressure) in anaesthetised hypertensive rats
# Conditions: for N animals with erections/N animals / Number of erections (mean ± sem): 30 min after infusion
# [1] = alfuzosine 3, 10 or 30 μg/kg alone (i.v. infusion)
# [2] = Table 2, apomorphine 50 μg/kg alone
# [3] = apomorphine 10 μg/kg s.c. + 5% glucose infusion
# [4] = apomorphine 20 μg/kg s.c. + 5% glucose infusion
# [5] = apomorphine 50 μg/kg s.c. + 5% glucose infusion
# [6] = apomorphine 100 μg/kg s.c. + 5% glucose infusion
# [7] = apomorphine 250 μg/kg s.c. + 5% glucose infusion
structure (smiles),measurement,setting,value
COc1cc2nc(N(C)CCCNC(=O)C3CCCO3)nc(N)c2cc1OC (stereo not shown) [Alfuzosine],AUC,[1],0 mmHg · sec
same,Duration of erection,[1],0 s
same,n animal with erections/n animal,[1],0/6
same,number of erections,[1],0
same,ΔICP,[1],0 mmHg
same,induction of erections per se,alfuzosine 3 to 100 μg/kg i.v. after vehicle of apomorphine,Neither 5% glucose nor alfuzosine (3 to 100 μg/kg i.v.) was able to induce per se erections
CN1CCc2cccc3c2[C@H]1Cc1ccc(O)c(O)c1-3 [Apomorphine],AUC,[2],640 ± 216 mmHg · sec
same,Duration of erection,[2],105 ± 23 s
same,n animal with erections/n animal,[2],9/9
same,number of erections,[2],2.6 ± 0.4
same,ΔICP,[2],29 ± 7 mmHg
same,AUC,[3],0 mmHg · sec
same,Duration,[3],0 s
same,ΔICP,[3],0 mmHg
same,N animals with erections/N animals,[3],0/8
same,Number of erections (mean ± sem),[3],0
same,AUC,[4],582 ± 172 mmHg · sec
same,Duration,[4],61 ± 7 s
same,ΔICP,[4],41.4 ± 13.9 mmHg
same,N animals with erections/N animals,[4],5/10
same,Number of erections (mean ± sem),[4],0.5000
same,AUC,[5],640 ± 215 mmHg · sec
same,Duration,[5],105 ± 23 s
same,ΔICP,[5],29.3 ± 6.5 mmHg
same,N animals with erections/N animals,[5],9/9
same,Number of erections (mean ± sem),[5],2.5556
same,AUC,[6],501 ± 193 mmHg · sec
same,Duration,[6],71 ± 19 s
same,ΔICP,[6],25.5 ± 8.2 mmHg
same,N animals with erections/N animals,[6],9/9
same,Number of erections (mean ± sem),[6],3.1111
same,AUC,[7],1073 ± 237 mmHg · sec
same,Duration,[7],71 ± 19 s
same,ΔICP,[7],58.6 ± 9.7 mmHg
same,N animals with erections/N animals,[7],6/6
same,Number of erections (mean ± sem),[7],5.0000
same,erectile responses,apomorphine 10-250 μg/kg s.c.,induced concentration-dependent erectile responses
same,first dose triggering erections in some animals in comparison to the control group,apomorphine s.c.,0.02 mg/kg
same,first dose which induced at least one erectile event in all the animals,apomorphine s.c.,0.05 mg/kg
same,number of erections,"text b79, apomorphine 50 μg/kg alone",2.6±0.4
